Read-outs that look alike come from different tables or passages of the source.
Legend:
PDE8A1 = target: T1, PDE8A1 (Homo sapiens, UniProt O60658); assay: PDE enzymatic profile; type: biochemical
T1 construct: purchased Scottish Biochem (Glasgow, Scotland, UK)

PDE7B = target: T2, PDE7B (Homo sapiens, UniProt Q9NP56); assay: PDE enzymatic profile; type: biochemical
T2 construct: purchased Scottish Biochem (Glasgow, Scotland, UK)

PDE8B1 = target: T3, PDE8B1 (Homo sapiens, UniProt O95263); assay: PDE enzymatic profile; type: biochemical
T3 construct: purchased Scottish Biochem (Glasgow, Scotland, UK)

PDE10A1 = target: T4, PDE10A1 (Homo sapiens, UniProt Q9Y233); assay: PDE enzymatic profile; type: biochemical
T4 construct: purchased Scottish Biochem (Glasgow, Scotland, UK)

PDE5A1 = target: T5, PDE5A1 (Homo sapiens, UniProt O76074); assay: PDE enzymatic profile; type: biochemical
T5 construct: purchased Scottish Biochem (Glasgow, Scotland, UK)

PDE1B = target: T6, PDE1B (Homo sapiens, UniProt Q01064); assay: PDE enzymatic profile; type: biochemical
T6 construct: purchased Scottish Biochem (Glasgow, Scotland, UK)

[1] = cited from earlier work
mice [2] = system: mice; parameters: method as in PMID 21649644; details: 0.03 and 0.3 mg/kg; same experimental conditions; cited from earlier work
PDE7A = target: T7, PDE7A (Homo sapiens, UniProt Q13946); assay: PDE enzymatic profile; type: biochemical
T7 construct: purchased Scottish Biochem (Glasgow, Scotland, UK)

PDE4B2 = target: T8, PDE4B2 (Homo sapiens, UniProt Q07343); assay: PDE enzymatic profile; type: biochemical; details: read-out: GEBR-32a % inhibition, recombinant human PDE expressed in baculovirus
T8 construct: purchased Scottish Biochem (Glasgow, Scotland, UK); host or cells: baculovirus system

aged WT and Tg2576 mice = assay: Hippocampal long-term potentiation, fEPSP recordings in slices of chronically treated mice; type: in vivo, mouse; details: chronic 0.03 mg/kg for 23 days
Experimental: Electrophysiological recordings have been carried out as previously described. […] A concentric bipolar platinum-iridium stimulation electrode and a low-resistance glass recording microelectrode filled with saline solution ([…]) were placed in CA1 stratum radiatum to record the extracellular field excitatory postsynaptic potential (fEPSP). Basal synaptic transmission was assayed by plotting the stimulus voltages against slopes of fEPSP.

WT and Tg2576 mice = assay: Y-maze continuous alternation task; type: in vivo, mouse
Experimental: The apparatus was made of grey Plexiglas with three arms symmetrically placed together at a 120° angle. At the beginning of the trial, each mouse was placed in one of three arms (randomly divided and balanced) and was then allowed to freely explore the apparatus for 6 minutes. The number of entries into a different arm and the order was measured. An entry was only counted if all four paws of the animal were placed completely inside the arm. When a mouse visited all 3 arms consecutively, it made a triad. In between trials, the apparatus was cleaned with a 70% ethanol solution to avoid olfactory cues. […] Of note, there was no statistical difference between testing sessions (day effect; data not shown) and, therefore, both test sessions were pooled. To measure spatial working memory, the percentage of alternations was calculated by taking the number of triads and dividing it through the maximum possible alternations (total entries minus 2) and multiply this by 100. A score of 50% alternations is considered chance level and, therefore, a significant difference from 50% is indicative of functional working memory. Normal distribution of data was evaluated by Kolmogorov–Smirnov and one-way ANOVA was performed to evaluate differences between the conditions. For each condition, one-sample t-test was used for comparison versus the score of 50%.

PDE4B1 = target: T9, PDE4B1 (Homo sapiens, UniProt Q07343); assay: PDE enzymatic profile; type: biochemical; details: read-out: GEBR-32a % inhibition, recombinant human PDE expressed in baculovirus
T9 construct: purchased Scottish Biochem (Glasgow, Scotland, UK); host or cells: baculovirus system

HTLA cells [3] = assay: Cytotoxicity, lactate dehydrogenase release; type: cell-based, human; details: 100 μM, 24 hours
Experimental: (§1) At the end of the incubation period, lactate-dehydrogenase release was measured in conditioned media using the Cytoxicity Detection Kit^PLUS (Roche, Germany) according to manufacturer protocols.

PDE4A4 = target: T10, PDE4A4 (Homo sapiens, UniProt P27815); assay: PDE enzymatic profile; type: biochemical; details: read-out: GEBR-32a % inhibition, recombinant human PDE expressed in baculovirus
T10 construct: purchased Scottish Biochem (Glasgow, Scotland, UK); host or cells: baculovirus system

[4] = Pharmacokinetic analysis, plasma and brain; type: in vivo; details: male, mouse
Experimental: For blood analysis, 25 μL of plasma were transferred into a 1.5 mL Eppendorf tube and were added with 25 μL of methanol and 25 μL of internal standard (500 ng/mL voriconazole), followed by the addition of 100 μL methanol. As for brains, 100 mg of tissue were placed into a plastic tube and added with 500 μL of methanol to facilitate homogenization, which was carried out using a Fluko F6/10 superfine homogenizer for approximately 1 min. […] A 25 μL aliquot of the homogenized samples was transferred into an Eppendorf tube and added with 20 μL of internal standard (500 ng/mL voriconazole) followed by the addition of 100 μL of methanol. […] AUC0-t: the area under the plasma/brain concentration versus time curve from time 0 to the last measurable concentration was calculated by using the linear trapezoidal rule. Cmax: the maximum observed plasma concentration.

PDE9A1 = target: T11, PDE9A1 (Homo sapiens, UniProt O76083); assay: PDE enzymatic profile; type: biochemical; details: read-out: GEBR-32a % inhibition, recombinant human PDE expressed in baculovirus, NI = no inhibition
T11 construct: purchased Scottish Biochem (Glasgow, Scotland, UK)

PDE2A3 = target: T12, PDE2A3 (Homo sapiens, UniProt O00408); assay: PDE enzymatic profile; type: biochemical; details: read-out: GEBR-32a % inhibition, recombinant human PDE expressed in baculovirus, NI = no inhibition
T12 construct: purchased Scottish Biochem (Glasgow, Scotland, UK)

HTLA cells [5] = assay: Genotoxicity, phosphorylation of histone H2A.X (Western blot); type: cell-based, human; details: 100 μM, 24 hours
Experimental: as §1
To evaluate genotoxicity, cells were processed for total protein extraction as described previously. Immunoblots were done according to standard methods, using the following antibodies: mouse monoclonal to gamma H2A.X (2F3, phospho S139) and rabbit polyclonal to Histone H2A.X (Abcam, UK); anti-mouse and anti-rabbit secondary antibodies coupled to horseradish peroxidase (GE Healthcare, UK). Proteins were visualized with an enzyme-linked chemiluminescence detection kit according to the manufacturer’s instructions (GE Healthcare). Chemiluminescence was monitored by exposure to films and signals were analyzed under non-saturating condition with an image densitometer (Bio-Rad, CA, USA).

PDE4B3 = target: T13, PDE4B3 (Homo sapiens, UniProt Q07343); assay: PDE enzymatic profile; type: biochemical; details: read-out: GEBR-32a % inhibition, recombinant human PDE expressed in baculovirus
T13 construct: purchased Scottish Biochem (Glasgow, Scotland, UK); host or cells: baculovirus system

HTLA cells [6] = assay: cAMP determination in cultured cells; type: cell-based, human; details: 100 μM
Experimental: The cells used in this study (human neuroblastoma cell line HTLA-230, HTLA) were grown in Roswell Park Memorial Institute medium (RPMI), with 0.1 mM non-essential aminoacids and 10% fetal bovine serum. At the end of treatments, intracellular cAMP was measured with the DetectX® Direct Cyclic AMP Enzyme Immunoassay Kit (Arbor Assay, MI, USA), following the manufacturer’s protocol.
(§2) Results from cells and slices are presented as fold increase and represent mean ± S.E.M. of the number of experiments reported in the figure legend. Normal distribution was evaluated by Kolmogorov–Smirnov test and then data have been analysed by one-way ANOVA followed by Newman-Keuls or Dunnett’s tests, as appropriate.

mice [7] = assay: Ketamine/xylazine induced α2-adrenoceptor-mediated anaesthesia test (emetic-like effect); type: in vivo, mouse; details: 0.003–3 mg/kg s.c., adult mice
Experimental: The outcome measurement was the total time the animals were anesthetized, measured from anaesthesia induction to the righting reflex (i.e. when mice were back on all four paws). In order to reduce the number of animals for experimentation and to get sufficient group sizes, the experiments were performed three times with 2 recovery days in between. […] Normal distribution of data was evaluated by Kolmogorov–Smirnov and one-way ANOVA was used to compare all conditions.

PDE11A1 = target: T14, PDE11A1 (Homo sapiens, UniProt Q9HCR9); assay: PDE enzymatic profile; type: biochemical; details: read-out: GEBR-32a % inhibition, recombinant human PDE expressed in baculovirus, NI = no inhibition
T14 construct: purchased Scottish Biochem (Glasgow, Scotland, UK)

PDE4A1 = target: T15, PDE4A1 (Homo sapiens, UniProt P27815); assay: PDE enzymatic profile; type: biochemical; details: read-out: GEBR-32a % inhibition, recombinant human PDE expressed in baculovirus
T15 construct: purchased Scottish Biochem (Glasgow, Scotland, UK); host or cells: baculovirus system

rat hippocampal slices = assay: cAMP determination in hippocampal slices; type: cell-based; details: forskolin 0.1 μM
Experimental: Hippocampal slices (400 μm thick) were obtained from adult Sprague Dawley rats using a McIlwain tissue chopper and pre-incubated in physiological medium[52] […] Finally, slices were left in hot medium (90 °C) for 15 min, sonicated and centrifuged at 10000 g for 15 min. The supernatant was used for cAMP determination, using the same kit as above, and the pellet for protein quantification.
as §2

HTLA cells [8] = system: HTLA cells; parameters: method as in PMID 27560284; details: 100 μM; same experimental conditions; cited from earlier work
[9] = parameters: method as in PMID 27560284; details: parent compound; cited from earlier work
[10] = Dipyridamole 50 μM, read-out: Comparator % inhibition
[11] = read-out: GEBR-32a % inhibition
[12] = sc, brain, 10 mg/kg s.c., BALB/c mice
[13] = sc, plasma, 10 mg/kg s.c., BALB/c mice
[14] = read-out: GEBR-32a % inhibition, 10 μM, recombinant human PDE expressed in baculovirus

T1 sequence (O60658 whole entry): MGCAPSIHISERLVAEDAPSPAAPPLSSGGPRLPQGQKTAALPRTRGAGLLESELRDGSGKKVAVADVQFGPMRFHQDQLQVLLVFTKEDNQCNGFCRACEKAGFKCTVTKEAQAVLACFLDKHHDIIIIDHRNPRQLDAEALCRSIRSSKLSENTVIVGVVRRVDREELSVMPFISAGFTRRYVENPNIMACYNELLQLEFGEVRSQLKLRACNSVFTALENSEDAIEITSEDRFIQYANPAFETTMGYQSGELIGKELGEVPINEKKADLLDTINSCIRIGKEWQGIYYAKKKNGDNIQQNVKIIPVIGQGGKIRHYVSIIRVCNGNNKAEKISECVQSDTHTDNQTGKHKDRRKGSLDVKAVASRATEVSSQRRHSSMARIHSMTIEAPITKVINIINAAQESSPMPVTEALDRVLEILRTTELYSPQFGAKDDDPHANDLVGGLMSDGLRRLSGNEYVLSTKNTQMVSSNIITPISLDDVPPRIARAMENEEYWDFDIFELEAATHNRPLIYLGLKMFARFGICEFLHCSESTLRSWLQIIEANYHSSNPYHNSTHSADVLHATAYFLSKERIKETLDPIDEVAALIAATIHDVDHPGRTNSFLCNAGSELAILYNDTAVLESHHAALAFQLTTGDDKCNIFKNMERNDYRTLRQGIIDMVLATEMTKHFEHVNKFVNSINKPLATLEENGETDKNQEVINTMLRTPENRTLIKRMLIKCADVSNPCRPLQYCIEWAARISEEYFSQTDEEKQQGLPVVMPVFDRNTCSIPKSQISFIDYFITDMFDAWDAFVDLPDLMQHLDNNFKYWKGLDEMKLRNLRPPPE
T4 sequence (Q9Y233 1-779 isoform Q9Y233-1): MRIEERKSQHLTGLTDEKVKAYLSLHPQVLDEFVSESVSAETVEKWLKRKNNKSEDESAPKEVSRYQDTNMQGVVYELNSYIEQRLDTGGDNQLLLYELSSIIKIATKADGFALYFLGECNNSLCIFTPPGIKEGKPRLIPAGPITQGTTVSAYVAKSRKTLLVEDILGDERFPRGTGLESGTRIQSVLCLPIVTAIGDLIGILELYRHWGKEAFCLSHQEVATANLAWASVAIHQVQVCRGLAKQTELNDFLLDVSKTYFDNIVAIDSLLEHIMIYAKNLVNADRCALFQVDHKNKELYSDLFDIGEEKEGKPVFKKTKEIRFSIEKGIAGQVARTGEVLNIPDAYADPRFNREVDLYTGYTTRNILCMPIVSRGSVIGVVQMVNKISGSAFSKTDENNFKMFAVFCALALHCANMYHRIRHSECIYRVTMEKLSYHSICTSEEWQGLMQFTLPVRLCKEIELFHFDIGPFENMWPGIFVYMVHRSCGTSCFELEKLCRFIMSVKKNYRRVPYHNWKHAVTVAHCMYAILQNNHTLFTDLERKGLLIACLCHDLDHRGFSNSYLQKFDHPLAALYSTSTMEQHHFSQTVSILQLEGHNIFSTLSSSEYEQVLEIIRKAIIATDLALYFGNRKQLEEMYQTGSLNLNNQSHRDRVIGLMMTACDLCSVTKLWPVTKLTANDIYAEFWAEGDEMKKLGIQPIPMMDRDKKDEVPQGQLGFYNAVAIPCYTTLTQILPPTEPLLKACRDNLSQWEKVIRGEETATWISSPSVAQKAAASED
T2 sequence (Q9NP56 whole entry): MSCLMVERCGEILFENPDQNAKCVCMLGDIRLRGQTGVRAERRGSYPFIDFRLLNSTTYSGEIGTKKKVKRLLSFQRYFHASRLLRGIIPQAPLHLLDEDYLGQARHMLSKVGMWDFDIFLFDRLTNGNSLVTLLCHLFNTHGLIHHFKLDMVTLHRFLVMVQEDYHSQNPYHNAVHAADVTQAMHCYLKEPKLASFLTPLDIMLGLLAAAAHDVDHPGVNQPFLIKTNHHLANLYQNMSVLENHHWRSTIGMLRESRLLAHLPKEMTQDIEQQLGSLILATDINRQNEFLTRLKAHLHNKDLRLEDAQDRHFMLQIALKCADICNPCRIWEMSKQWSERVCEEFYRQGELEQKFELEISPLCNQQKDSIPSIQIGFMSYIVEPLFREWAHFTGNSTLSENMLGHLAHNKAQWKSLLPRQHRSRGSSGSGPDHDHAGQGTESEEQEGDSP
T3 sequence (O95263 whole entry): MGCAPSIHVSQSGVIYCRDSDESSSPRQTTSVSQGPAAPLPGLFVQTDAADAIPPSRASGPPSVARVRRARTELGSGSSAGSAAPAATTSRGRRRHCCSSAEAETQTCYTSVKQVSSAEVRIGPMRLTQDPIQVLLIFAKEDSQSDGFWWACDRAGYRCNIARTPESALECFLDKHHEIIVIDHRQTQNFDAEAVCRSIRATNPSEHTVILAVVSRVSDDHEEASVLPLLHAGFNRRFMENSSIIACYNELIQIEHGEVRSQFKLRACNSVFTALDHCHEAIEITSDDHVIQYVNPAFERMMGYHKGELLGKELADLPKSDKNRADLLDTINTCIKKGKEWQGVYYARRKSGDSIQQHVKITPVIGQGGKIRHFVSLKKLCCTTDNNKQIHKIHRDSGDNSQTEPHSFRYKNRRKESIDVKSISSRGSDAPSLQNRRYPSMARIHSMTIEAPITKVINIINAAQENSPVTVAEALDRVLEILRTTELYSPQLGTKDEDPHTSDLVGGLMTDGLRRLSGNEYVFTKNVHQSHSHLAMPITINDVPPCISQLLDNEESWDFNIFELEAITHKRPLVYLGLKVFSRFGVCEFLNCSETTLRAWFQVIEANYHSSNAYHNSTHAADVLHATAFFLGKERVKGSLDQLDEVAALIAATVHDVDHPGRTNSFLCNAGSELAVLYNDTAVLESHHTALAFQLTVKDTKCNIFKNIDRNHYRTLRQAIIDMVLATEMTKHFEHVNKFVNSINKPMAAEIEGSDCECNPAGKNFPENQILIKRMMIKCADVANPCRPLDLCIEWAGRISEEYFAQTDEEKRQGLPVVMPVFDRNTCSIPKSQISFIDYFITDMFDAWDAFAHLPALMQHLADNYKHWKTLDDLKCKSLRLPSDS
T7 sequence (Q13946 whole entry): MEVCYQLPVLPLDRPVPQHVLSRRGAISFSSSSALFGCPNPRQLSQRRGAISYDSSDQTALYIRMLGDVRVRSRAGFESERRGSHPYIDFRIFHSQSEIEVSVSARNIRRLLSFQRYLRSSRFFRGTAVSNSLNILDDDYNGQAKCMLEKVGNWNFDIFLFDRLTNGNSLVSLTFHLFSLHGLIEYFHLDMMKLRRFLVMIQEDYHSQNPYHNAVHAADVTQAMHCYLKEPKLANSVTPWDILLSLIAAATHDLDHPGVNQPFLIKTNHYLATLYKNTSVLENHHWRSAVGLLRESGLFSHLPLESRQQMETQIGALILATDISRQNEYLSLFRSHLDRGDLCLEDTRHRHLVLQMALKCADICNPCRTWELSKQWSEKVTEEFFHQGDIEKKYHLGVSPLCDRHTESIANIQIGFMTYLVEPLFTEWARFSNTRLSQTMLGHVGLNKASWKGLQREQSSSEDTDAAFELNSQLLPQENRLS
T6 sequence (Q01064 whole entry): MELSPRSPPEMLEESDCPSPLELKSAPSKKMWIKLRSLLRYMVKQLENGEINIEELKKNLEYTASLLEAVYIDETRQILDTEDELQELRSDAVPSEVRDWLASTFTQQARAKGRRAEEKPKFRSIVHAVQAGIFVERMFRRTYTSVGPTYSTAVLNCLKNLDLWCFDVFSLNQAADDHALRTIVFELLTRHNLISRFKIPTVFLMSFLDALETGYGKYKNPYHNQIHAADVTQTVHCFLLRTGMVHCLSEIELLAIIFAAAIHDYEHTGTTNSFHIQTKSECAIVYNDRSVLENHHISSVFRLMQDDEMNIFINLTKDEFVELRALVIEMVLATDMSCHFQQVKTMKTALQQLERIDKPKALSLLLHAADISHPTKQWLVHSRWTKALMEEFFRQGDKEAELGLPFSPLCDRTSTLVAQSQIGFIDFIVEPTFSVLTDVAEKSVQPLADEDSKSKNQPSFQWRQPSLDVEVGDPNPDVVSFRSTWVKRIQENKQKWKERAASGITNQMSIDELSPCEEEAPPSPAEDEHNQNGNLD
T15 sequence (P27815 1-647 isoform P27815-4): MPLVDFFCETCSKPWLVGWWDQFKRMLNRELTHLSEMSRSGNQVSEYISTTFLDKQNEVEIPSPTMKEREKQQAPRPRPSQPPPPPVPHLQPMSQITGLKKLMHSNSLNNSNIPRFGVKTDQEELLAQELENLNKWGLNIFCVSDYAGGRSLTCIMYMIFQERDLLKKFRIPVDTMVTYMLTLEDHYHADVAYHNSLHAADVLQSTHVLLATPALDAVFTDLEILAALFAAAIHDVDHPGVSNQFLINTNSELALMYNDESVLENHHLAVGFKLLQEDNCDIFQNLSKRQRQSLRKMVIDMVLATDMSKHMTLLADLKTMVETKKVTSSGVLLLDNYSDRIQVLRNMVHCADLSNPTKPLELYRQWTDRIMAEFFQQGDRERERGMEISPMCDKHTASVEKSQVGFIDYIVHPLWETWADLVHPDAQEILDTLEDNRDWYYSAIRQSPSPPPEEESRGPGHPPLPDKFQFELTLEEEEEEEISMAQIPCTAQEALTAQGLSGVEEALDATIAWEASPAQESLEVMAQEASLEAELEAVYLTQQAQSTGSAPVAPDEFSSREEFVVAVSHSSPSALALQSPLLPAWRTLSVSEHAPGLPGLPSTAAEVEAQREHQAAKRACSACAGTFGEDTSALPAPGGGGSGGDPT

Compound: OCCN(CCO)c1nc(N2CCCCC2)c2nc(N(CCO)CCO)nc(N3CCCCC3)c2n1 [Dipyridamole, reference compound]
- inhibition at 50 µM (PDE8A1; [10]): 64.4%
- inhibition at 50 µM (PDE7B; [10]): 47.3%
- inhibition at 50 µM (PDE8B1; [10]): 57.4%

Compound: COc1ccc(Cc2nccc3cc(OC)c(OC)cc23)cc1OC [Papaverine, reference compound]
- inhibition at 1 µM (PDE10A1; Papaverine 1 μM, read-out: Comparator % inhibition): 90.7%

Compound: CCCc1nn(C)c2c(=O)[nH]c(-c3cc(S(=O)(=O)N4CCN(C)CC4)ccc3OCC)nc12 [Sildenafil, reference compound]
- inhibition at 0.1 µM (PDE5A1; read-out: Comparator % inhibition): 74.9%
- inhibition at 10 µM (PDE1B; Sildenafil 10 μM, read-out: Comparator % inhibition): 74.4%

Compound: O=C(Nc1c(Cl)cncc1Cl)c1ccc(OC(F)F)c(OCC2CC2)c1 [roflumilast]
- brain/plasma ratio [1]: 1

Compound: COc1ccc(C2CNC(=O)C2)cc1OC1CCCC1 (centres unmarked) [Rolipram]
- duration of anaesthesia (emetic-like effect) (mice [2]): significantly shortened anaesthesia time

Compound: Cc1ccc([N+](=O)[O-])cc1S(=O)(=O)N(C)C [BRL-50481, reference compound]
- Comparator % inhibition (PDE7A; BRL-50481 10 μM): 78.6 (BRL-50481 10 μM) %

Compound: OC(CN1CCOCC1)Cn1ccc(-c2ccc(OC(F)F)c(OC3CCCC3)c2)n1 (centres unmarked) [GEBR-32a]
- inhibition at 10 µM (PDE4B2): 26.3%
- hippocampal LTP (fEPSP) (aged WT and Tg2576 mice; aged Tg2576 mice): rescue the LTP deficit
- hippocampal LTP (fEPSP) (aged WT and Tg2576 mice; aged WT mice): clear, though not significant, enhancement of LTP
- inhibition at 10 µM (PDE8A1; [11]): < 0%
- percentage of alternations, Y-maze (WT and Tg2576 mice; adult WT mice, administered 30 min before trial, data not shown): not further improved
- percentage of alternations, Y-maze (WT and Tg2576 mice; aged Tg2576 mice, acute 0.0003–0.3 mg/kg s.c. 30 min before trial): not able to induce any improvement
- percentage of alternations, Y-maze (WT and Tg2576 mice; aged Tg2576 mice, chronic 0.03 mg/kg for up to 23 days): alternations significantly higher than 50%
- percentage of alternations, Y-maze (WT and Tg2576 mice; aged WT mice, acute, all doses tested 0.0003–0.3 mg/kg s.c. 30 min before trial): significantly ameliorated the performance
- inhibition at 10 µM (PDE4B1): 41.6%
- inhibition at 10 µM (PDE10A1; [11]): < 0%
- cytotoxicity, lactate dehydrogenase release (HTLA cells [3]): did not produce any significant effect
- inhibition at 10 µM (PDE4A4): 11%
- Tmax ([4]; BALB/c, plasma and brain, subcutaneous, 10 mg/kg, absorption and distribution to the brain): 20 min
- half-life ([4]; BALB/c, plasma and brain, subcutaneous, 10 mg/kg, elimination, read-out: half-life (converted)): ~60 min
- Kp ([4]; in vivo, sc, 10 mg/kg s.c., BALB/c mice, read-out: AUC0-t Ratio (Brain/Plasma)): 2.71
- AUC(0-t) [4, 12]: 2330 ng·h/mL
- Cmax [4, 12]: 2610 ng/g
- Tmax [4, 12]: 19.8 min
- half-life ([4]; sc, brain, 10 mg/kg s.c., BALB/c mice, read-out: t1/2 (converted)): 57 min
- AUC(0-t) [4, 13]: 861 ng·h/mL
- Cmax [4, 13]: 993 ng/mL
- Tmax [4, 13]: 19.8 min
- half-life ([4]; sc, plasma, 10 mg/kg s.c., BALB/c mice, read-out: t1/2 (converted)): 57 min
- inhibition at 10 µM (PDE9A1): < 0%
- inhibition at 10 µM (PDE5A1; [14]): 4.97%
- inhibition at 10 µM (PDE7B; [14]): 8.61%
- inhibition at 10 µM (PDE2A3): < 0%
- inhibition at 10 µM (PDE7A; read-out: GEBR-32a % inhibition, 10 μM, recombinant human PDE expressed in baculovirus, NI = no inhibition): < 0%
- genotoxicity, phosphorylation of histone H2A.X (HTLA cells [5]): did not produce any significant effect
- inhibition at 10 µM (PDE4B3): 39.4%
- increase of the forskolin-induced elevation of cAMP in cultured cells (HTLA cells [6]; forskolin 1 μM): 12 fold
- increase of cAMP with respect to controls (HTLA cells [6]; without forskolin): 2.5 fold
- duration of anaesthesia (emetic-like effect) (mice [7]): did not significantly influence the duration of anaesthesia
- inhibition at 10 µM (PDE11A1): < 0%
- inhibition at 10 µM (PDE4A1): 41%
- EC50 (rat hippocampal slices; Rattus norvegicus, 0.1–100 μM, read-out: apparent EC50, increase of forskolin-induced cAMP production): 1800 nM
- elevation of forskolin-induced cAMP production (rat hippocampal slices; highest concentration tested (100 μM)): 4 fold
- inhibition at 10 µM (PDE8B1; [14]): 23.5%
- inhibition at 10 µM (PDE1B; [11]): 10.7%

Compound: COc1ccc(-c2ccn(CC(O)CN3CCOCC3)n2)cc1OC1CCCC1 (centres unmarked) [compound 8a]
- increase of the forskolin-induced elevation of cAMP in cultured cells (HTLA cells [8]): 4 fold
- brain/plasma ratio [9]: 0.76

From paper PMC5389348 (Scientific Reports, 2017)
